Legend:
[1] = system: PEO4 ovarian cancer cell line; experiment: MTT cytotoxicity assay, PEO4; type: cell-based, human; conditions: Homo sapiens, PEO4, read-out: IC50, viability of ovarian cancer cell line
Protocol: (§1) SKOV-3 ovarian cancer cells were purchased from American Type Culture Collection (ATCC) (Manassas, Va.). SKOV-3 cells were cultured in McCoy's 5A medium (ATCC, Manassas, Va.) supplemented with 10% fetal bovine serum and 100 units/mL penicillin G sodium, 100 ug/mL streptomycin sulfate, and 292 μg/ml, L-glutamine (BioWhittaker, Wakersville, Md.). Luciferase-expressing cells were generated by infecting SKOV-3 cells with pCLNCX-luciferase retrovirus (SKOV-3-Luc) as previously reported (Wei, B. R. et al. 2009). Human OVCAR-8 ovarian cancer cells were provided by the National Cancer Institute (part of the NCI-60 collection). The PEO1, PEO4, and PEO6 ovarian cancer cell lines have previously been characterized (Langdon, S. P. et al. 1988) and were kindly provided by Dr. Ian Goldlust (National Center for Advancing Translational Sciences, Shady Grove, Md.). […]
(§2) Cell survival was measured by the 3-(4,5-dimethylthiazol-2-yl)-2,5-diphenyltetrazolium bromide (MTT, Invitrogen) assay. […] Absorbance values were determined at […] on a Spectra Max 250 spectrophotometer (Molecular Devices, Sunnyvale, Calif.). […] Cell viability was analyzed via the MTT assay as described above. […]

[2] = system: PEO6 ovarian cancer cell line; experiment: MTT cytotoxicity assay, PEO6; type: cell-based, human; conditions: Homo sapiens, read-out: IC50, viability of ovarian cancer cell line
Protocol: as §1, §2

PP2A = molecular target: T1, PP2A (Homo sapiens, UniProt P67775); experiment: PP2A phosphatase activity assay; type: cell-based; conditions: cell lysate from SKOV-3 cells, 2 h treatment
T1 construct: endogenous in cells; host or cells: SKOV-3 ovarian cancer cells (lysate supernatant, assayed with the Millipore PP2A Phosphatase Assay Kit)
Protocol: Ovarian cancer cells were grown to 80% confluence in 100 mm dishes and treated with LB100 as indicated and prepared as described previously (Wei, D. et al. 2013). Following treatment for 2 h, cells were washed twice with cold PBS (pH7.4) and lysed in lysis buffer (20 mmol/L imidazole-HCL, 2 mmol/L EDTA, 2 mmol/L EGTA, pH 7.0) supplemented with protease inhibitors (Roche) for 30 minutes on ice. Cell lysates were sonicated for 10 s then centrifuged at 2,000×g for 5 min. Supernatants were assayed with the PP2A Phosphatase Assay Kit (Millipore, Billerica, Mass.) according to the manufacturer's instructions. Experiments were performed in triplicate, and the data are presented as a percent mean of relative PP2A activity compared to control ±SD.

OVCAR-8 cells = experiment: Cell-cycle analysis (FACS), OVCAR-8; type: cell-based, human; conditions: LB100 2 μM
Protocol: For cell-cycle analysis, cells were washed with PBS and fixed overnight in ice-cold 70% ethanol and stored at 4° C. Cells were then centrifuged and resuspended in 100 U RNAse (Sigma-Aldrich), and incubated at 37° C. for 20 min. Propidiumidodide solution (Invitrogen, 500 μL, 50 μg/mL in DPBS) was added to each tube and incubated in the dark at 4° C. overnight. Flow cytometry analysis was performed with CellQuestPro and data analysis was completed with ModFit LT. All data is in triplicate and presented as a percent mean±SD.

[3] = system: p-Chk1 (S345) and apoptosis proteins in OVCAR-8 cells; experiment: Immunoblotting, OVCAR-8 cells; type: cell-based, human; conditions: after 1 h cisplatin, recovery up to 8 h, vs media alone
Protocol: Whole cell and homogenized tumor tissues were lysed in NP-40 lysis buffer [50 mM Tris/HCl, pH 7.4, 150 mM NaCl and 1% Nonidet P40, supplemented with Complete Protrase Inhibitor Cocktail tablets and PhosStop phosphatase inhibitors (Roche, Indianapolis, Ind.)] and prepared as previously described (Madigan, J. P. et al. 2009). Protein (40 μg) was resolved on SDS/PAGE (12% or 15% gels) and transferred onto Immobilon PVDF membrane. The membrane was then blocked for 1 hour at room temperature in 5% (w/v) non-fat milk in TBS-Tween and probed overnight with primary antibodies. After extensive washing, cells were probed with anti-rabbit or anti-mouse IgG-horseradish per oxidase (HRP)-conjugated secondary antibodies (Cell Signaling Technology, Danvers, Mass.) in blocking buffer for 1 h. Membranes were subsequently incubated in Immobilon Western blot Chemiluminescent HRP Substrate (Millipore) and developed on biomax XAR film (Kodak). Antibodies were purchased from Cell Signaling Technology: γH2AX (Ser139), p-Wee1 (Ser 642), Wee1, p-cdc2 (Tyr15), p-BRCA1 (Ser1524), p-Chk1 (Ser345), p-Chk1 (Ser317), Chk-1, phospho-Chk2 (Thr68), PP2Ac, cleaved caspase-3 (Asp175), cleaved PARP (Asp214), p-histone H3 (Ser10), p-ATR (Ser428), and p-(Ser)14-3-3 binding motif. […]

T1 sequence (P67775 whole entry): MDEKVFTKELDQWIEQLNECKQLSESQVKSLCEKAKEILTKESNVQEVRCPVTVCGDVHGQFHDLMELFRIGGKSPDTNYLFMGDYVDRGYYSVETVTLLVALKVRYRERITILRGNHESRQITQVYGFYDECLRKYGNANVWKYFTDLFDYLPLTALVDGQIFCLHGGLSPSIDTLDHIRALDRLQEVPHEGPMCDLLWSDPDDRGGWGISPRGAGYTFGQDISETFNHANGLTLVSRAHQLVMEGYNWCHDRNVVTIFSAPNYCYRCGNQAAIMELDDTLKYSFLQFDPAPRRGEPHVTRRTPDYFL
T1 sequence (P30153 2-589 partner limits assumed): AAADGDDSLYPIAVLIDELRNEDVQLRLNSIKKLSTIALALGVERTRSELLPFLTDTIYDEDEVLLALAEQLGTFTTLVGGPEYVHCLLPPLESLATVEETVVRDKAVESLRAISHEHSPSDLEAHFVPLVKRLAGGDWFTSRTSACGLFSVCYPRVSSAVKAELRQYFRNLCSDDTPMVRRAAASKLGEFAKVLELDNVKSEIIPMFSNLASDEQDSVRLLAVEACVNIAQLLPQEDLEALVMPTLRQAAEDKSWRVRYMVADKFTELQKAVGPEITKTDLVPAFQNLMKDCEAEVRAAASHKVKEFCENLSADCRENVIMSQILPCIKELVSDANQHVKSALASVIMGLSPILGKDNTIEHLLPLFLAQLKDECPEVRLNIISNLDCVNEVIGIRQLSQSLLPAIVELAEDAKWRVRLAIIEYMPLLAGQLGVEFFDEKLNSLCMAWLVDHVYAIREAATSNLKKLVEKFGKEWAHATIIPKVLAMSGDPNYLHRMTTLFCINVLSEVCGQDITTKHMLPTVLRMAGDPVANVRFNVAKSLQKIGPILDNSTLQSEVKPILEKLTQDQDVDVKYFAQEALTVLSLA

SMILES: CN1CCN(C(=O)C2C(C(=O)O)[C@H]3CC[C@@H]2O3)CC1 (stereo partly shown) [LB100]
- IC50 [1]: 5 ± 0.6 µM
- IC50 [2]: 5.1 ± 0.2 µM
- PP2A enzymatic function (PP2A): concentration-dependent decrease
- G1 (%) (OVCAR-8 cells; 24 h): 45.4 ± 1.5%
- G2/M (%) (OVCAR-8 cells; 24 h): 17.6 ± 0.4%
- S (%) (OVCAR-8 cells; 24 h): 37.0 ± 1.6%
- G1 (%) (OVCAR-8 cells; 48 h): 55.3 ± 0.4%
- G2/M (%) (OVCAR-8 cells; 48 h): 14.9 ± 1.5%
- S (%) (OVCAR-8 cells; 48 h): 29.9 ± 1.1%
- phosphorylation of Chk1 at S345 [3]: significantly increased

Source: patent US20170136008A1, “OXABICYCLOHEPTANES AND OXABICYCLOHEPTENES FOR THE TREATMENT OF OVARIAN CANCER” (priority 2014, published 2017)
